Like-named read-outs stand apart in the source and are kept apart here. One block for each molecule: values may come before it. *1 amine or outer side, *2 acyl side, *3 side chain or, on linkers, in order; H or OH if unused. Where a SMILES comes first, the peptide text is derived from it. [ ]: non-standard residue; d: D form. The star is where a group is joined. ξ: configuration not given here. Tyr(3-NO2) = N[C@@H](Cc1ccc(O)c([N+](=O)[O-])c1)C(=O)O; Trp(6-Cl) = N[C@@H](Cc1c[nH]c2cc(Cl)ccc12)C(=O)O; Trp(5-OH) = N[C@@H](Cc1c[nH]c2ccc(O)cc12)C(=O)O; X1 = CC(OP(=O)(O)O)[C@@H](N[*:1])C(=O)[*:2]; 2Nal = N[C@@H](Cc1ccc2ccccc2c1)C(=O)O; 4Pal = N[C@@H](Cc1ccncc1)C(=O)O; Pip = O=C(O)[C@@H]1CCCCN1; ξPip = O=C(O)C1CCCCN1; ClAc = O=C(CCl)*
Experiments:
[1] = biological target: T1, Pin1 (Homo sapiens, UniProt Q13526); assay: Pin1 degradation in BxPC3 cells (western blot); format: cell-based; settings: Bx-PC3 cell line, 25 μM, 24 h (FIG. 1B)
T1 sequence (Q13526 whole entry): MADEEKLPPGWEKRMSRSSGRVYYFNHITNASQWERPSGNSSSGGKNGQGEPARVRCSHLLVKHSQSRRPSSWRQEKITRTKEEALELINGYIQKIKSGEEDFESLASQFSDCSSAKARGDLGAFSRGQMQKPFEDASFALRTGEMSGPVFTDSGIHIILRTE
Source text: Next, each cell line was exposed to a relatively high concentration of each of the Pin1 inhibitors from Table 1 and measured their ability to cause Pin1 degradation in the Bx-PC3 cell line under the experimental conditions reported in FIG. 1B. […] It was hypothesized that this observed degradation in the series correlated with the increased sensitivity of Pin1 to thermal degradation induced by BJP-07-017-3 in vitro (Table 1).
(§1) BxPC3, MIA PaCa-2, PANC-1, MDA-MB-231, and PC3 were obtained from the American Type Culture Collection (ATCC) and A549 NucLight Red cells were purchased from Essen Bioscience. BxPC3 and PC3 cells were cultured in RPMI (Corning) while PANC-1 cells were cultured in DMEM (Corning). MIA PaCa-2 cells were also cultured in DMEM, but with the addition of 2.5% horse serum. A549 NucLight cells were cultured in a Ham's F-12 nutriend mixture with GlutaMAX-1 (Gibco). All of the culture media were supplemented with 10% FBS. […]
(§2) At the end of the treatments, cells were lysed with a lysis buffer containing 20 mM Tris, pH 7.4, 120 mM NaCl, 1% Triton X-100, 0.5% sodium deoxycholate, 0.1% SDS, 1% IGEPAL, 5 mM EDTA, protease inhibitor cocktail and PhosSTOP (Sigma-Aldrich). […] Protein concentrations were determined using the Pierce BCA Protein Assay Kit (ThermoFisher Scientific) according to the manufacturer's instruction. […]

[2] = biological target: T1, Pin1; settings: Pu W, et al. (2018); read-out: dissociation constant by isothermal titration calorimetric measurements; cited from earlier work
[3] = biological target: T1, Pin1; assay: DELFIA displacement assay (displacement of biotinylated D-peptide from 6His-Pin1); format: binding; set-up: human Pin1 (residues 1-163); made in house; host or cells: E. coli BL21 (DE3) gold pLysS
Source text: (§3) Important to the success of structure activity relations studies, robust biochemical, biophysical, and cell-based assays were implemented that enabled rapid and iterative evaluations of test Pin1 targeting agents. First, the DELFIA (Dissociation-enhanced lanthanide fluorescent immunoassay) assay platform was used to derive a robust heterogeneous assay to monitor the ability of test agents to displace the binding between Pin1 and the D-Peptide (Table 1), which was obtained in a biotinylated form (FIG. 10). […] Second, for an orthogonal biophysical assay denaturation thermal shift measurements were used. Pin1 was incubated with vehicle control (buffer with 1% DMSO), or test agents at protein: ligand ratio of 1:2 (20 μM protein-40 μM compound) for 10 min at 10° C. in the presence of the fluorescent dye SYPRO Orange. The samples were gradually exposed to increasing temperature (linear gradient from 10° C. to 95° C.), causing the protein to unfold. This unfolding allowed the fluorescent dye to bind to the protein's exposed hydrophobic residues, resulting in an increase in fluorescence. The thermal shift assay measures the protein's melting temperature (Tm), which is the temperature at which the protein denatures by 50%. Ligands can affect a protein target to thermal denaturation, which could manifest in a positive or negative shift in the protein denaturation temperature (ΔTm) (Bai N, Roder H, Dickson A, & Karanicolas J (2019) Scientific Reports 9; and Kranz J K & Schalk-Hihi C (2011) Fragment-Based Drug Design: Tools, Practical Approaches, and Examples 493:277-298). Using these two assays, a series of commercially available Pin1 inhibitors were profiled (Table 1). The non-covalent agent D-peptide resulted only moderately active, with an IC50 value of ˜3 μM that closely resembled the dissociation constant for this agent determined via isothermal titration calorimetry, and the ˜ 3 μM IC50 value as reported by a fluorescence polarization assay (Pinch B J, et al. (2020) Nat Chem Biol 16(9):979-987). […] (Table 1) was observed.
For the reported covalent agents such as sulfopin (Dubiella C, et al. (2021) Nat Chem Biol 17(9):954-963), BJP-07-017-3 (Pinch B J, et al. (2020) Nat Chem Biol 16(9):979-987), or KPT-6566 (Campaner E, et al. (2017) Nat Commun 8:15772), a 6-h pre-incubation period was included in the DELFIA assay to allow the covalent reaction to take place. For those agents, IC50 values that fell in the low nanomolar range were observed, consistent with what was reported previously for those compounds. […] To make those determinations in a broader panel of cancer cell lines three pancreatic cancer cell lines, BxPC3, MIA-PaCa-2, and PANC-1, the breast cancer cell line MDA-MB-231, the prostate cancer cell line PC3, and the non-small cell lung cancer cell line A549 were chosen. Each cell line represents various states of KRAS activating mutations (for example BxPC3 is wt-KRAS, while MIAPaCa2 carries the KRAS(G12C) mutation, and the PANC-1 the KRAS(G12D) (Miquel M, Zhang S, & Pilarsky C (2021) Front Cell Dev Biol 9:748631), A549 is KRAS(G12S) (Wang H, et al. (2019) EBioMedicine 49:106-117), MDA-MB-231 is KRAS(G13D) (Kim R K, et al. (2015) Exp Mol Med 47(1):e137), PC3 is wt-KRAS (Bouali S, et al. (2009) Oncol Rep 21(3):731-735). Pin1 protein levels in these cell lines were established using a specific Pin1 antibody in western blot analyses (FIG. 1A). The data confirmed that all these selected human cancer cell lines expressed a significant level of Pin1 (FIG. 1A).
Each well of 96-well streptavidin-coated plates (PerkinElmer) was incubated with 100 μL of 200 nM biotinylated D-peptide for 2 h and washed 3 times with a wash solution (PerkinElmer). Subsequently, a mixture containing Pin1, and a serial dilution of the test compounds were pre-incubated for 6 h. Eu-N1-labeled anti-6x-His antibody (PerkinElmer, 1:2000) was then added to this mixture and further incubated in the biotinylated D-peptide-bound plates for another 2 h. […]

[4] = biological target: T1, Pin1; assay: Denaturation thermal shift assay (SYPRO Orange); format: binding; set-up: human Pin1 (residues 1-163); made in house; host or cells: E. coli BL21 (DE3) gold pLysS; settings: for ΔTm (° C.) 30 min: Table 1, Protein:compound 1:2, 20X Sypro Orange, 50 mM phosphate pH 7.5, 150 mM NaCl, 3% DMSO; for ΔTm: running text and figure legends
Source text: as §3
Thermal shift assays for Pin1 alone and in the presence of the inhibitors were obtained with a BioRad CFX Connect Real-Time PCR Detection System. Each data point was collected in quadruplicate. Each sample was prepared using buffer 50 mM Phosphate pH 7.5, 150 mM NaCl, 1% DMSO. Protein: ligand ratio used was 1:2 (20 μM protein-40 μM compound), and SYPRO Orange was used. Incubation of the Pin1 protein with the compounds was performed at 10° C. for 10 min. Samples were then heated from 10 to 95° C. with heating increments of 0.05° C., over 30 min. Fluorescence intensity was measured within the excitation/emission ranges 470-505/540-700 nm.

[5] = biological target: T1, Pin1; assay: Pin1 degradation in a panel of human cancer cell lines (western blot); format: cell-based; settings: all cell lines, exposed to 5 μM, 24 h (FIG. 4); read-out: Dmax (the maximal level of degradation)
Description: In these studies, it was evident that both agents were very effective in degrading Pin1 in all tested human cancer cell lines with DC50 values (the concentration at which 50% degradation was observed)˜500 nM and Dmax (the maximal level of degradation) close to 100% with all cell lines when exposed to 5 μM of either agent (FIG. 4).
as §1, §2

[6] = biological target: T1, Pin1; settings: Pinch B J, et al. (2020); read-out: IC50 value as reported by a fluorescence polarization assay; cited from earlier work
[7] = Table 1, 6-h pre-incubation followed by 2-h incubation, ± SD from duplicates
[8] = Table 3, single transition, ± SE of four replicates
[9] = Table 4, two transitions observed, likely incomplete complex formation

SMILES: CC(C)(C)CN(C(=O)CCl)C1CCS(=O)(=O)C1 (centres unmarked) [Sulfopin]
Pin1 degradation in cell [1]: significant Pin1 degradation

SMILES: Nc1nc(OCc2ccc(CNC(=O)C(F)(F)F)cc2)c2nc[nH]c2n1 [API-1]
Kd [2]: 2.9 µM

SMILES: CN(C(=O)CCl)[C@@H](Cc1ccccc1)C(=O)N1CCCC[C@H]1C(=O)N[C@@H](CC1CNc2ccccc21)C(=O)N[C@@H](CCCNC(N)=O)C(N)=O (some centres unmarked) [158A12, reference compound]
Pin1 degradation in cell [1]: significant Pin1 degradation
IC50 [3, 7]: 0.009 ± 0.001 µM
ΔTm (° C.) 30 min ([4]; ± SE of four replicates): −6.40 ± 0.04 °C
ΔTm [4]: −6.4 °C

SMILES: CC(=O)N[C@@H](Cc1ccccc1)C(=O)N[C@@H](C(=O)N1CCCCC1C(=O)N[C@@H](Cc1ccc2ccccc2c1)C(=O)N[C@@H](CCC(N)=O)C(N)=O)C(C)OP(=O)(O)O (some centres unmarked) [158A1, reference compound] (Ac-F[X1][ξPip][2Nal]Q-NH2)
IC50 [6]: ~3 µM
IC50 [3]: ~3 µM
IC50 [3, 7]: 2.91 ± 0.103 µM
ΔTm (° C.) 30 min ([4]; ± SE of four replicates): 3.40 ± 0.16 °C
ΔTm [4]: 3.4 °C

SMILES: O=C(CCl)N[C@@H](Cc1c[nH]c2ccccc12)C(=O)N1CCCC[C@H]1C(=O)NCCc1c[nH]c2cc(Cl)cc(Cl)c12 [164A3]
IC50 ([3]; Table 5): 1.18 ± 0.045 µM
ΔTm (° C.) ([4]; Table 5, only one transition given): −13.68 ± 0.20 °C

SMILES: CC1(C)[C@H]2C[C@@H](C(=O)N[C@@H](Cc3c[nH]c4ccccc34)C(N)=O)N(C(=O)[C@@H]3Cc4c([nH]c5ccccc45)CN3C(=O)CCl)[C@H]21 [164A12]
IC50 ([3]; Table 4, ± SD from duplicates): 0.044 ± 0.001 µM
share of first denaturation transition ([4]; Table 4, percentage in brackets after first ΔTm): 30%
share of second denaturation transition ([4]; Table 4, percentage in brackets after second ΔTm): 70%
ΔTm (° C.), first of two denaturation transitions [4, 9]: +1.03 ± 0.13 °C
ΔTm (° C.), second printed of two denaturation transitions [4, 9]: −19.18 ± 0.07 °C

More lines, now with the values ahead:

Dmax [5]: ~100%
ΔTm [4]: −8.41 °C
SMILES: NC(=O)[C@H](Cc1c[nH]c2ccccc12)NC(=O)[C@@H]1CCCCN1C(=O)[C@H](Cc1c[nH]c2cc(Cl)ccc12)NC(=O)CCl [158H9] (ClAc-[Trp(6-Cl)]-[Pip]-Trp-NH2)

Dmax [5]: ~100%
ΔTm [4]: −8.95 °C
SMILES: NC(=O)[C@H](Cc1c[nH]c2ccc(F)cc12)NC(=O)[C@@H]1CCCCN1C(=O)[C@@H]1Cc2c([nH]c3ccccc23)CN1C(=O)CCl [164A10]

IC50 ([3]; Table 3, ± SD from duplicates): 0.183 ± 0.012 µM
ΔTm (° C.) [4, 8]: −10.44 ± 0.17 °C
SMILES: NC(=O)[C@H](Cc1c[nH]c2ccccc12)NC(=O)[C@@H]1CCCCN1C(=O)[C@H](Cc1ccc(O)c([N+](=O)[O-])c1)NC(=O)CCl [158G10] (ClAc-[Tyr(3-NO2)]-[Pip]-Trp-NH2)

IC50 ([3]; Table 3, ± SD from duplicates): 0.0824 ± 0.0004 µM
ΔTm (° C.) [4, 8]: −9.82 ± 0.08 °C
SMILES: COc1ccc(C[C@H](NC(=O)CCl)C(=O)N2CCCC[C@H]2C(=O)N[C@@H](Cc2c[nH]c3ccccc23)C(N)=O)cc1 [158H5] (ClAc-Tyr(Me)-[Pip]-Trp-NH2)

IC50 ([3]; Table 3, ± SD from duplicates): 0.135 ± 0.001 µM
ΔTm (° C.) [4, 8]: −9.99 ± 0.00 °C
SMILES: NC(=O)[C@H](Cc1c[nH]c2ccc(O)cc12)NC(=O)[C@@H]1CCCCN1C(=O)[C@H](Cc1ccccc1)NC(=O)CCl [158F9] (ClAc-Phe-[Pip]-[Trp(5-OH)]-NH2)

IC50 ([3]; Table 2, ± SD from duplicates): 0.146 ± 0.019 µM
ΔTm (° C.) ([4]; Table 2, ± SE of four replicates): −10.40 ± 0.04 °C
SMILES: NC(=O)[C@H](Cc1c[nH]c2ccccc12)NC(=O)[C@@H]1CCCCN1C(=O)[C@H](Cc1ccccc1)NC(=O)CCl [158D10] (HELM PEPTIDE1{[O=C(CCl)[*:2]].F.[O=C([C@@H]1CCCCN1[*:1])[*:2]].W.[am]}$$$$V2.0)

IC50 ([3]; Table 3, ± SD from duplicates): 0.099 ± 0.004 µM
ΔTm (° C.) [4, 8]: −9.18 ± 0.07 °C
SMILES: NC(=O)[C@H](Cc1c[nH]c2ccccc12)NC(=O)[C@@H]1CCCCN1C(=O)[C@H](Cc1ccncc1)NC(=O)CCl [158H1] (ClAc-[4Pal]-[Pip]-Trp-NH2)

From patent publication US20250296955A1, “PIN1 TARGETING COMPOUNDS AND DEGRADERS AND METHODS THEREOF” (The Regents of the University of California, priority 2024, published 2025)
